Assay: Solid tumour dose-escalation study: pharmacokinetics (plasma, urine)
Format: in vivo, human
Conditions: for Plasma concentration of AZD1208, Gmean: Cycle 1, Day 15
Experimental: The schedules for collection of blood and urine samples for PK analyses in each cohort in both studies are described in Supplementary Table 1. When necessary for clinical response assessment in the AML study, a bone marrow sample for PK analysis was collected at Cycle 1, Day 28.
The concentration of AZD1208 in plasma and urine was determined by Covance, on behalf of Clinical Bioanalysis Alliance at AstraZeneca R&D, using a bioanalytical method. A volume of 0.05 ml of K2EDTA human plasma sample was extracted by liquid–liquid extraction using 0.7 ml of methyl tert-butyl ether. Approximately 100 µl of the supernatant was transferred, evaporated to dryness and reconstituted with 350 µl of 1:1 methanol:water, and a 5 µl injection was made to the high-performance liquid chromatography (HPLC) column. HPLC separations were performed on a Phenomenex LUNA C18 (50 × 2 mm, 5 µm) column using a mobile phase of 0.1% formic acid in water (A) and 0.1% formic acid in acetonitrile (B) at a flow rate of 0.6 ml/min and a column temperature of 40 °C. AZD1208-D5 was used as the internal standard. Detection was performed in a Sciex API4000 mass spectrometer, in a positive electrospray ionisation mode, using multiple reaction monitoring detection (AZD1208: 380.0–>248.1; AZD1208-D5: 385.0–>253.1).

Q: Which results are given for `N[C@@H]1CCCN(c2c(/C=C3\SC(=O)NC3=O)cccc2-c2ccccc2)C1` [AZD1208]?
A: Plasma concentration of AZD1208, Gmean (0.25 h post-dose, 540 mg): n=3 496.8 ng ml; Plasma concentration of AZD1208, Gmean (0.5 h post-dose, 120 mg): n=3 1109 ng ml; Plasma concentration of AZD1208, Gmean (0.5 h post-dose, 240 mg): n=6 881.5 ng ml; Plasma concentration of AZD1208, Gmean (0.5 h post-dose, 360 mg): n=3 884.4 ng ml; Plasma concentration of AZD1208, Gmean (0.5 h post-dose, 540 mg): n=3 774 ng ml; Plasma concentration of AZD1208, Gmean (0.5 h post-dose, 700 mg): n=4 1042 ng ml; Plasma concentration of AZD1208, Gmean (0.5 h post-dose, 800 mg): n=2 1420 ng ml; Plasma concentration of AZD1208, Gmean (1 h post-dose, 120 mg): n=3 1319 ng ml; Plasma concentration of AZD1208, Gmean (1 h post-dose, 240 mg): n=6 1316 ng ml; Plasma concentration of AZD1208, Gmean (1 h post-dose, 360 mg): n=3 1983 ng ml; Plasma concentration of AZD1208, Gmean (1 h post-dose, 540 mg): n=3 1691 ng ml; Plasma concentration of AZD1208, Gmean (1 h post-dose, 700 mg): n=4 1320 ng ml; Plasma concentration of AZD1208, Gmean (1 h post-dose, 800 mg): n=2 1783 ng ml; Plasma concentration of AZD1208, Gmean (1.5 h post-dose, 120 mg): n=3 1367 ng ml; Plasma concentration of AZD1208, Gmean (1.5 h post-dose, 240 mg): n=6 1843 ng ml; Plasma concentration of AZD1208, Gmean (1.5 h post-dose, 360 mg): n=3 3212 ng ml; Plasma concentration of AZD1208, Gmean (1.5 h post-dose, 540 mg): n=3 3302 ng ml; Plasma concentration of AZD1208, Gmean (2 h post-dose, 120 mg): n=3 1681 ng ml; Plasma concentration of AZD1208, Gmean (2 h post-dose, 240 mg): n=6 2340 ng ml; Plasma concentration of AZD1208, Gmean (2 h post-dose, 360 mg): n=3 3106 ng ml; Plasma concentration of AZD1208, Gmean (2 h post-dose, 540 mg): n=3 3646 ng ml; Plasma concentration of AZD1208, Gmean (2 h post-dose, 700 mg): n=4 2802 ng ml; Plasma concentration of AZD1208, Gmean (2 h post-dose, 800 mg): n=2 1705 ng ml; Plasma concentration of AZD1208, Gmean (4 h post-dose, 120 mg): n=3 1649 ng ml; Plasma concentration of AZD1208, Gmean (4 h post-dose, 240 mg): n=6 1899 ng ml; Plasma concentration of AZD1208, Gmean (4 h post-dose, 360 mg): n=3 2483 ng ml; Plasma concentration of AZD1208, Gmean (4 h post-dose, 540 mg): n=3 2508 ng ml; Plasma concentration of AZD1208, Gmean (4 h post-dose, 700 mg): n=4 2882 ng ml; Plasma concentration of AZD1208, Gmean (4 h post-dose, 800 mg): n=2 2509 ng ml; Plasma concentration of AZD1208, Gmean (6 h post-dose, 120 mg): n=3 1657 ng ml; Plasma concentration of AZD1208, Gmean (6 h post-dose, 240 mg): n=6 1637 ng ml; Plasma concentration of AZD1208, Gmean (6 h post-dose, 360 mg): n=2 2130 ng ml; Plasma concentration of AZD1208, Gmean (6 h post-dose, 540 mg): n=3 2023 ng ml; Plasma concentration of AZD1208, Gmean (6 h post-dose, 700 mg): n=4 3291 ng ml; Plasma concentration of AZD1208, Gmean (6 h post-dose, 800 mg): n=2 3401 ng ml; Plasma concentration of AZD1208, Gmean (8 h post-dose, 120 mg): n=3 1262 ng ml; Plasma concentration of AZD1208, Gmean (8 h post-dose, 240 mg): n=6 1466 ng ml; Plasma concentration of AZD1208, Gmean (8 h post-dose, 360 mg): n=3 1813 ng ml; Plasma concentration of AZD1208, Gmean (8 h post-dose, 540 mg): n=3 1739 ng ml; Plasma concentration of AZD1208, Gmean (pre-dose, 120 mg): n=3 903.1 ng ml; Plasma concentration of AZD1208, Gmean (pre-dose, 240 mg): n=6 560.9 ng ml; Plasma concentration of AZD1208, Gmean (pre-dose, 360 mg): n=3 602.5 ng ml; Plasma concentration of AZD1208, Gmean (pre-dose, 540 mg): n=4 266.6 ng ml; Plasma concentration of AZD1208, Gmean (pre-dose, 700 mg): n=3 819 ng ml; Plasma concentration of AZD1208, Gmean (pre-dose, 800 mg): n=2 1099 ng ml; Half-life, max (following a single dose): 103 h; Half-life, min (following a single dose): 18.9 h; Mean half-life (following a single dose): 37.2 h; Median Tmax (multiple dosing): ~ 4 h; Tmax range (multiple dosing): 1.5 to 6 h; AZD1208 dose observed in urine (multiple dosing, Day 15): 0.5%; Renal clearance (single and multiple dosing): negligible; AZD1208 dose eliminated in urine (single dose, over 72 h): ~ 1%; Median Tmax (single dosing): ~ 5 h; Tmax range (single dosing): 1.5 to 25 h

From publication PMC5988656, “Phase I studies of AZD1208, a proviral integration Moloney virus kinase inhibitor in solid and haematological cancers” (British Journal of Cancer, 2018)
